From US20250213561A1, “SELECTIVE HYPOTHALAMUS PERMEABLE HDAC6 INHIBITORS FOR TREATMENT OF LEPTIN-RESISTANT OBESITY” (The Children’s Medical Center Corporation, priority 2022, published 2025)

Experiments:
DIO mice [1] = test: CLAMS metabolic cages in DIO mice; type: in vivo; conditions: for energy expenditure: 3 days, ACY775 10 mg/kg, ACY738 50 mg/kg i.p.
Method: Diet induced obese (DIO) mice were placed into metabolic cages and received ACY775 (10 mg/kg, i.p., n=7) or vehicle (n=8) once a day for 3 days. Energy expenditure, respiratory exchange ratios (RER; VCO2/VO2), ambulatory count (physical activity) from each group of mice were determined. Bar graphs represent average of two dark (8-20 and 32-44 hr) and two light cycles ([…]).
Comprehensive Lab Animal Monitoring System (CLAMS) was used to measure metabolic parameters such as energy expenditure (EE) and respiratory exchange ratio (RER) and physical activity levels in Vehicle- and ACY775-treated mice.

DIO mice [2] = test: Single dose food intake in 24 h fasted DIO mice; type: in vivo; conditions: ACY775 10 mg/kg, ACY738 50 mg/kg i.p.
Method: Food intake was analyzed hourly until 3:00 am. […] DEXA scans were performed in two different cohorts.

p-STAT3^Tyr705 = test: Leptin-stimulated hypothalamic STAT3 Tyr705 phosphorylation in DIO mice; type: in vivo; conditions: 45 minutes after leptin 1 mg/kg i.p.
Method: DIO mice were pretreated with ACY775 (10 mg/kg/day, i.p.) or vehicle for 3 days, which was followed by a last injection of ACY775 (or vehicle) in the morning of fourth day. 6 hours later mice were injected with saline or leptin (1 mg/kg, i.p.) and hypothalamus were extracted after 45 minutes following the leptin injection. Representative immunoblots for STAT3^Tyr705 phosphorylation and total STAT3 from the hypothalamus. Quantification of the ratio of p-STAT3^Tyr705 to total-STAT3 signal in the immunoblots. The results were reproduced in three independent experiments. The results were analyzed hourly.
DIO mice were pretreated with ACY775 (10 mg/kg/day, i.p.) or vehicle for 3 days, which was followed by a last injection of ACY775 (or vehicle) in the morning of fourth day. 6 hours later mice were injected with saline or leptin (1 mg/kg, i.p.) and the hypothalamus were extracted after 45 minutes following the leptin injection.
6 hours later mice were injected with saline or leptin (1 mg/kg, i.p.) and hypothalamus were extracted after 45 minutes following the leptin injection. Immunoblots for STAT3^Tyr705 phosphorylation and total STAT3 from the hypothalamus were made to quantify the ratio of p-STAT3^Tyr705 to total-STAT3 signal in the immunoblots. The results were reproduced in two independent experiments.
DIO mice were pretreated with ricolinostat (50 mg/kg/day, i.p.) or vehicle 3 days, which was followed by a last injection of ricolinostat (or vehicle) in the morning of fourth day. 6 hours later mice were injected with saline or leptin (1 mg/kg, i.p.) and the hypothalamus were extracted after 45 minutes following the leptin injection. Immunoblots were performed for STAT3^Tyr705 phosphorylation and total STAT3 from the hypothalamus. The ratio of p-STAT3^Tyr705 to total STAT3 signal in the immunoblots was quantified.

DIO mice [3] = test: Conditioned place preference (CPP) assay in DIO mice; type: in vivo; conditions: for time and frequency in the food zone / time and frequency in the food-containing white side chambers: fed and fasting conditions; for cumulative duration in the dark side chambers: fed or fasting conditions
Method: DIO mice were treated with vehicle or ACY775 (10 mg/kg, i.p., once a day) for 3 days. On the fourth day, 1 h after the beginning of the light cycle, the mice were administered vehicle or ACY775 (10 mg/kg, i.p.) and the conditioned place preference (CPP) assay under the ad libitum feeding condition was utilized. The CPP assay was performed 6 h later under the ad libitum feeding condition (n=10 mice for both the Vehicle- and ACY775-treated groups). CPP assay under a 20-h fasting condition was also performed. DIO mice were treated with vehicle or ACY775 (10 mg/kg, i.p.) once a day and fasted for 15 h after the third injection. On the fourth day, 1 h after the beginning of the light cycle, the mice were administered vehicle or ACY775 (10 mg/kg body weight, i.p.) and the CPP assay was performed 5 h after this injection under the fasting condition (n=10 mice for both the Vehicle- and ACY775-treated groups).
Measurements were made of the total distance that the mice traveled during the CPP test, the average velocity of movement during the assay, the total time the mice spent in the dark chamber during the test; the frequency with which the mice traveled to the dark chamber during the test; the total time the mice spent in the food-paired white chamber; the frequency with which the mice traveled to the food paired white chamber; the total time the mice spent in the food-containing zone within the food-paired side chamber; and the frequency with which the mice traveled to the food-containing zone within the food-paired side chamber during the test.

HDAC6 = test: Ac-tubulin immunoblotting in HEK293 cells; type: cell-based
HDAC6-KO DIO mice = test: Chronic treatment of DIO WT versus HDAC6 KO mice; type: in vivo; conditions: for blood glucose, serum insulin and leptin levels, WT versus HDAC6 KO / fat mass and fat %, WT versus HDAC6 KO / food intake, WT versus HDAC6 KO / glucose tolerance and insulin sensitivity (GTT, ITT), WT versus HDAC6 KO / lean mass, WT versus HDAC6 KO / body weight, WT versus HDAC6 KO: DIO mice; for body weight, WT versus HDAC6 KO: 3 weeks, ACY775 10, ACY738 50, Tubastatin A 25 mg/kg/day i.p.

| SMILES | energy expenditure (DIO mice [1]) | food intake after a single dose (DIO mice [2]) | leptin-stimulated hypothalamic p-STAT3^Tyr705 (p-STAT3^Tyr705) | time and frequency in the food zone (DIO mice [3]) | time and frequency in the food-containing white side chambers (DIO mice [3]) | cumulative duration in the dark side chambers (DIO mice [3]) | tubulin acetylation (HDAC6 inhibitor activity in cells) (HDAC6) | body weight in HDAC6 KO mice (HDAC6-KO DIO mice; DIO HDAC6 KO mice) | blood glucose, serum insulin and leptin levels, WT versus HDAC6 KO (HDAC6-KO DIO mice) | fat mass and fat %, WT versus HDAC6 KO (HDAC6-KO DIO mice) | food intake, WT versus HDAC6 KO (HDAC6-KO DIO mice) | glucose tolerance and insulin sensitivity (GTT, ITT), WT versus HDAC6 KO (HDAC6-KO DIO mice) | lean mass, WT versus HDAC6 KO (HDAC6-KO DIO mice) | body weight, WT versus HDAC6 KO (HDAC6-KO DIO mice) | physical activity level (DIO mice [1]; dark and light cycles) |
| --- | --- | --- | --- | --- | --- | --- | --- | --- | --- | --- | --- | --- | --- | --- | --- |
| O=C(NO)c1cnc(NC2(c3ccccc3)CC2)nc1 [ACY738] | higher energy expenditure in light cycle, though without significant difference in dark cycle | significantly reduced/blocked the food intake | substantially increased | spent significantly shorter time and displayed lower frequency of appearance | spent similar time and frequency of appearance | no significant differences in cumulative duration | inhibits the HDAC6 activity | slight decrease | all significantly higher in the ACY738-treated HDAC6 KO group | significantly lower in the wt group compared to the HDAC6 KO group | significantly higher in the HDAC6 KO group | did not improve glucose tolerance and increase insulin sensitivity in the HDAC6 KO mice | not different | major difference |  |
| O=C(NO)c1cnc(NC2(c3cccc(F)c3)CCCCC2)nc1 [ACY775, 2-[[1-(3-fluorophenyl)cyclohexyl]amino]-N-hydroxy-5-pyrimidinecarboxamide] | higher in the both dark and light cycle | significantly reduced/blocked the food intake | increased significantly | spent significantly shorter time and displayed lower frequency of appearance | spent significantly shorter time and had lower frequency of appearance | no significant differences in cumulative duration | increases tubulin acetylation |  | all significantly higher in the ACY775-treated HDAC6 KO group | significantly lower in the wt group compared to the HDAC6 KO group | blocked in the HDAC6 KO mice | could not increase glucose tolerance and insulin sensitivity in the HDAC6 KO mice | not different | highly significant decrease in the bodyweight of the WT DIO mice when compared to HDAC6 KO DIO mice | not different |
